Experimental data as given in patent publication US20190069576A1, “Solid Form Nutrient Compositions” (Railsplitter Feed Technology, Inc., priority 2016, published 2019).

System: infant pigs
Assay: Hemoglobin measurement of pigs treated with granular materials or iron dextran injections
Type: in vivo, pig
Description: In Example 6, four litters of pigs were provided granular product (sample numbers 272 and 280). These litters were offered these granular products ad litum from birth to 21 days of birth. Two litters were not offered granular material, but were instead injected with iron dextran on day 3 after birth with 1 cc of 200 mg of iron dextran. Two other litters, also not offered granular material, were injected twice, once on day 3, and once on day 10 after birth. Each injection was a 1 cc injection of 200 mg of iron dextran.
The National Research Council in the Nutrient Requirement of Swine publication recommends that levels of iron dextran providing more than 200 mg per pig in one injection be avoided. Many producers provide a second injection to minimize the deficiency which doubles the cost of preventing anemia in young pigs, and increases the probability of spreading pathogens with needles.
Hemoglobin analysis is an excellent way to quantitate the adequacy of iron for the pig but the treatment differences are obvious by just viewing the litters.
A striking difference between healthy hemoglobin adequate pigs and anemic pigs is the color of the skin. This is most obvious in white pigs, and most pigs in US have some white color in their breed lineage. Pigs with hemoglobin values above 10 gm per 100 ml. have extremely bright, pink skin, while anemic pigs have very pale almost white color of the skin.

[1] = 1 injection, day 3, 1 cc of 200 mg, first litter (12 pigs)
[2] = 1 injection, second litter (10 pigs)
[3] = 2 injections, day 3 and day 10, each 1 cc of 200 mg, first litter (7 pigs)
[4] = 2 injections, second litter (11 pigs)

## iron dextran
[1]
  Pigs <10 gm % (hemoglobin): 10
  Pigs >10 gm % (hemoglobin): 2
[2]
  Pigs <10 gm % (hemoglobin): 4
  Pigs >10 gm % (hemoglobin): 6
1 injection, total of 22 pigs
  % with adequate Hemoglobin: 36%
  Pigs <10 gm % (hemoglobin): 14
  Pigs >10 gm % (hemoglobin): 8
[3]
  Pigs <10 gm % (hemoglobin): 2
  Pigs >10 gm % (hemoglobin): 5
[4]
  Pigs <10 gm % (hemoglobin): 2
  Pigs >10 gm % (hemoglobin): 9
2 injections, total of 18 pigs
  % with adequate Hemoglobin: 77%
  Pigs <10 gm % (hemoglobin): 4
  Pigs >10 gm % (hemoglobin): 14
